In paper PMC9455738, “Low-Dose Near-Infrared Light-Activated Mitochondria-Targeting Photosensitizers for PDT Cancer Therapy” (International Journal of Molecular Sciences, 2022):
Like-named read-outs stand apart in the source and are kept apart here.

Key:
Assay type in all cases: cell-based, human
[1] = system: A2780/CP70 cells; test: Resazurin cytotoxicity, dark and after white light projector irradiation (>600 nm), A2780/CP70
Method: (§1) Therefore, the cytotoxicity of the Pc-based compounds was evaluated against different cell lines both under irradiation and in the dark. Compounds LC31, MLC31, and DMLC31Pt, as well as cisplatin were screened against several cancer cell lines representative of human cervical cancer (HeLa), cisplatin-sensitive human ovarian carcinoma (A2780), cisplatin-resistant ovarian endometrioid adenocarcinoma (A2780/CP70), and non-cancerous fibroblast (MRC-5) cell lines. […]
(§2) Human cervical carc in oma cells (HeLa) were cultured in DMEM (Gibco) supplemented with 5% fe t a l calf serum (FCS, Gibco), 100 U/mL penicillin, 100 µg/mL st re pto myc i n . The normal human fe t a l lung fibroblast cell line (MRC‐5) wa s grown in MEM medium (Gibco) supplemented with 10% FCS (Gibco), penicillin (100 U/mL), and st re pto myc i n (100 µg/mL). The human ovarian carc in oma A2780 cell line and a cisplatin‐resistant subline CP70 were cultured in RPMI‐1640 medium (Gibco) supplemented with 10% FCS (Gibco), penicillin (100 U/mL), and st re pto myc in (100 μg/mL). The cells were cultured at 37 °C an d in 5% CO2 humidified at mo sph e re .
(§3) Cy to toxicit y Determination
(§4) The c y totoxic ity of the PSs in the dark and upon light irradiation was evaluated in several cell lines, using a re sa zu r in‐based fluorometric cell viability assay (Sigma‐Aldrich, Darmstadt, Germany). Stock solutions of the Pc agents (5 mM) were prepared in DMF and sto re d in the dark. The sto c k solutions were further diluted with co mp l ete medium to the desired working concentrations. Fo r an exp eriment , 100 µL aliquots of cells in growth medium were seeded in 96‐well plates (density of 2.5 × 10^3 cells/well fo r HeLa, 4 × 10^3 cells/well fo r A2780, and 1.5 × 10^3 cells/well fo r MRC‐5 cells) and incubated at 37 °C, 5% CO2 and 100% humidity. […] At the end of the incubation period, fluorescence of the highly re d fluorescent re so r u f in product (λex = 540 nm, λem = 590 nm) was quantified using a SpectraMax M5 microplate re a d e r (Molecular Device, San Jose, USA). […]

[2] = system: HeLa cells; test: Resazurin cytotoxicity, dark and after white light projector irradiation (>600 nm), HeLa
Method: as §1, §2, §3, §4

[3] = system: MRC-5 cells; test: Resazurin cytotoxicity, dark and after white light projector irradiation (>600 nm), MRC-5
Method: as §1, §2, §3, §4

[4] = system: A2780 cells; test: Resazurin cytotoxicity, dark and after white light projector irradiation (>600 nm), A2780
Method: as §1, §2, §3, §4

## N.N.[Cl][Pt][Cl] [cisplatin, Cis-[PtCl2(NH3)2]]
[1]; A2780/CP70 (cisplatin resistant), 4 h incubation in the dark, read-out: IC50 A2780/CP70 Dark
  IC50: 102 µM
[1]; A2780/CP70, 6.96 J cm^−2
  p.i. A2780/CP70: 0.79
[1]; A2780/CP70, 4 h incubation, white light projector cutoff below 600 nm, 5.8 mW cm^−2, 6.96 J cm^−2, read-out: IC50 A2780/CP70 Light
  IC50: 129 µM
[2]; 6.96 J cm^−2
  p.i. HeLa (phototoxicity index, IC50 dark / IC50 light): 0.76
[2]; 4 h incubation in the dark, further 72 h incubation, read-out: IC50 HeLa Dark
  IC50: 1.3 µM
[2]; 4 h incubation, white light projector cutoff below 600 nm, 5.8 mW cm^−2, 6.96 J cm^−2, further 72 h, read-out: IC50 HeLa Light
  IC50: 1.7 µM
[3]; MRC-5, 6.96 J cm^−2
  p.i. MRC-5: 1.2
[3]; MRC-5, 4 h incubation, white light projector cutoff below 600 nm, 5.8 mW cm^−2, 6.96 J cm^−2, read-out: IC50 MRC-5 Light
  IC50: 4.5 µM
[3]; MRC-5 non-cancerous fibroblast, 4 h incubation in the dark, read-out: IC50 MRC-5 Dark
  IC50: 5.4 µM
[4]; 6.96 J cm^−2
  p.i. A2780: 0.7
[4]; 4 h incubation in the dark, further 72 h incubation, read-out: IC50 A2780 Dark
  IC50: 2.8 µM
[4]; 4 h incubation, white light projector cutoff below 600 nm, 5.8 mW cm^−2, 6.96 J cm^−2, read-out: IC50 A2780 Light
  IC50: 4 µM
